Data on 24 compounds can be found in patent US8853424B2 (Japan Science and Technology Agency, priority 2008, dated 2014).

The test system of test [1] is Truncated N-terminal huntington 150 Q-EGFP-Neuron 2a cells. Kind of test: Measurement of x-Fold (polyglutamine aggregation inhibitory activity). The format is cell-based. On the procedure: In the present invention, the polyglutamine aggregation inhibitory activity (x-Fold) can be measured, for example, by the method described in the Example.
The number of the aggregated cells, and the total number of cells were counted by Array Scan V T1 (manufactured by Cellomics, Pittuburg, USA), and the ratio of the aggregated cells to the total number of cells was determined (x-Fold). […]

Another test has as its system transglutaminase (TGase). As to the kind of experiment: Measurement of TG (TGase inhibitory activity, monodansyl cadaverine / N,N-dimethylcasein fluorescence, FDSS 3000). The format is biochemical. The method, then:
For example, the method described in the Example can be performed.
The compound of the present invention (10 mM, 1 μL) was taken in a 96-well plate (Nunc, 96 Well Black Plate with Clear Bottom), an enzyme reaction solution (100 mM HEPES-NaOH, pH 7.5, 1 mM CaCl2, 20 μM monodansyl cadaverine, 0.05 mg/mL N,N-dimethylcasein, 5 μg/mL TGase) (0.1 ml) was added and the mixture was sufficiently mixed without making foams. The mixture was set on a fluorescence drug screening system FDSS 3000 (Hamamatsu Photonics K.K.), and changes in the fluorescence wavelength per unit time at 340 nm were measured, based on which the TGase inhibitory activity of the compound of the present invention was calculated. As a control, change in the fluorescence when 1 μL of DMSO (dimethyl sulfoxide) was added instead of the compound of the present invention was taken as 100, and TG50 was when the activity decreased to half due to the compound of the present invention.

Setting [2] is: ratio of aggregated cells to total number of cells, compound 20 μM, 20 hr, almost 1 without compound, smaller = stronger inhibition.
Where [3] appears, read: TGase activity with compound (10 mM, 1 μL in 0.1 ml enzyme reaction solution), DMSO control taken as 100.
The mark [4] stands for this setting: polyglutamine aggregation inhibitory activity, Table 1.
Where [5] appears, read: TGase inhibitory activity value, Table 1.
[6] abbreviates: polyglutamine aggregation, Truncated N-terminal huntington 150 Q-EGFP-Neuron 2a cells.
[7] abbreviates: TGase inhibitory activity measurement, unit not given.

On to `CN(C)CCOB(c1ccccc1)c1cccc(COCc2cccc(B(OCCN(C)C)c3ccccc3)c2)c1` [Example 206, bis(3,3′-(phenyldimethylaminoethoxyboryl)benzyl)ether], for which the x-Fold in test [1] (polyglutamine aggregation inhibitory activity, Table 1, listed as 3107) was 1.14; in test [1] (setting [2]), 1.14. In addition, the “TGase activity remaining (% of DMSO control = 100)” value worked out at 34 in the test with transglutaminase (TGase) (setting [3]) and 34 in the test with transglutaminase (TGase) (TGase inhibitory activity value, Table 1, listed as 3107).
As for `OB(c1ccc(F)cc1)c1ccc(COCc2ccc(B(O)c3ccc(F)cc3)cc2)cc1` [Example 142, bis(4-fluorophenylhydroxyboryl 4-benzyl)ether], the x-Fold in test [1] (setting [4]) and in test [1] (setting [2]) was 0.24 each time. For the same compound, the “TGase activity remaining (% of DMSO control = 100)” value in the test with transglutaminase (TGase) (setting [3]) and in the test with transglutaminase (TGase) (setting [5]) was 88 each time.
Turning to “di(3-chloro-4-methylphenyl)(2,6-diaminopimelinate-O,N)borane [Example 286]”, the x-Fold in test [1] (setting [4]) and in test [1] (setting [2]) was 0.93 in each case. The “TGase activity remaining (% of DMSO control = 100)” value in the test with transglutaminase (TGase) (setting [3]) and in the test with transglutaminase (TGase) (setting [5]) was 104 each time.
In the case of `CC(C)(N)COB(c1ccc(Cl)c(F)c1)c1ccc(Cl)c(F)c1` [Example 236, di(4-chloro-3-fluorophenyl) 2-amino-2-methyl-propyl-borinate], the x-Fold in test [1] (setting [4]) and in test [1] (setting [2]) was 1.10 each time. The “TGase activity remaining (% of DMSO control = 100)” value in the test on transglutaminase (TGase) (setting [3]) and in the test with transglutaminase (TGase) (setting [5]) was 87 each time.
Take `Cc1ccc(B(O)c2ccc(Oc3ccc(B(O)c4ccc(C)c(Cl)c4)cc3)cc2)cc1Cl` [Example 367, 4,4′-bis(3-chloro-4-methyl-phenylhydroxyboryl)diphenylether]: the x-Fold in test [1] (setting [4]) and in test [1] (setting [2]) was 0.73 in each case. In addition, the “TGase activity remaining (% of DMSO control = 100)” value in the test on transglutaminase (TGase) (setting [3]) and in the test with transglutaminase (TGase) (setting [5]) was 113 in each case.
For `c1ccc(B(OCC2CCCN2)c2ccc3sc4ccc(B(OCC5CCCN5)c5ccccc5)cc4c3c2)cc1` (stereo not shown) [Example 483, 2,8-di(phenyl 2-pyrrolidinomethoxyboryl)dibenzothiophene], the x-Fold in test [1] (setting [6]) and in test [1] (setting [2]) was 0.73 in each case. The “TGase activity remaining (% of DMSO control = 100)” value in the test with transglutaminase (TGase) (setting [3]) and with transglutaminase (TGase) (setting [7]) was 107 each time.
Turning to `OB(c1ccc(C(F)(F)F)cc1)c1c2ccccc2c(B(O)c2ccc(C(F)(F)F)cc2)c2ccccc12` [Example 374], the x-Fold in test [1] (setting [4]) and in test [1] (setting [2]) was 1.14 each time. For the same compound, the “TGase activity remaining (% of DMSO control = 100)” value in the test on transglutaminase (TGase) (setting [3]) and in the test on transglutaminase (TGase) (setting [5]) was 17 throughout.
As to `Cc1ccc(B(OCCN)c2ccc(-c3ccc(B(OCCN)c4ccc(C)cc4)cc3)cc2)cc1` [Example 364, 4,4′-(4-methylphenylaminoethoxyboryl)diphenyl], the x-Fold in test [1] (setting [4]) and in test [1] (setting [2]) was 0.82 throughout. The “TGase activity remaining (% of DMSO control = 100)” value with transglutaminase (TGase) (setting [3]) and with transglutaminase (TGase) (setting [5]) was 44 in each case.
Turning to `Cc1ccc(Cl)cc1B(OC(=O)C(N)CCCNC(N)=O)c1cc(Cl)ccc1C` (stereo not shown) [Example 160, di(3-chloro-6-methyl-phenyl)(citrullinate-O,N)borane], the x-Fold in test [1] (setting [4]) and in test [1] (setting [2]) was 1.02 throughout. The “TGase activity remaining (% of DMSO control = 100)” value in the test with transglutaminase (TGase) (setting [3]) and in the test with transglutaminase (TGase) (setting [5]) was 88 throughout.
Take `OB(c1ccc(C(F)(F)F)cc1)c1ccc(C(F)(F)F)cc1` [Example 75, bis(4-trifluoromethylphenyl)borinic acid]: the x-Fold came out at 0.88 in test [1] (polyglutamine aggregation inhibitory activity, Table 1, listed as 6001) and 0.88 in test [1] (setting [2]). Also, the “TGase activity remaining (% of DMSO control = 100)” value in the test with transglutaminase (TGase) (setting [3]) is listed as 97; in the test with transglutaminase (TGase) (TGase inhibitory activity value, Table 1, listed as 6001) it was 97.
On to `CCCCB(CCCC)OC(=O)C(N)Cc1ccccc1` (stereo not shown) [Example 493, dibutyl(phenylalanine-O,N)borane], for which the x-Fold in test [1] (setting [6]) and in test [1] (setting [2]) was 1.03 throughout. Further, the “TGase activity remaining (% of DMSO control = 100)” value in the test with transglutaminase (TGase) (setting [3]) and in the test on transglutaminase (TGase) (setting [7]) was 106 each time.
Take `OB(c1ccc(F)c(Cl)c1)c1ccc(F)c(Cl)c1` [Example 76, bis(3-chloro-4-fluorophenyl)borinic acid]: the x-Fold in test [1] (setting [4]) and in test [1] (setting [2]) was 0.78 in each case. In addition, the “TGase activity remaining (% of DMSO control = 100)” value with transglutaminase (TGase) (setting [3]) and in the test on transglutaminase (TGase) (setting [5]) was 117 throughout.
For the compound `OB(c1ccccc1)c1ccc2ccccc2c1-c1c(B(O)c2ccccc2)ccc2ccccc12` [Example 359, 2,2′-di(phenylhydroxyboryl)-1,1′-binaphthyl], the x-Fold in test [1] (setting [4]) and in test [1] (setting [2]) was 0.96 in each case. Moreover, the “TGase activity remaining (% of DMSO control = 100)” value in the test with transglutaminase (TGase) (setting [3]) and in the test with transglutaminase (TGase) (setting [5]) was 139 in each case.
For the compound `OB(c1ccc(F)cc1)c1cccc(COCc2cccc(B(O)c3ccc(F)cc3)c2)c1` [Example 336, bis(3-(4-fluorophenylhydroxyboryl)benzyl)ether], the x-Fold in test [1] (setting [4]) and in test [1] (setting [2]) was 1.02 each time. For the same compound, the “TGase activity remaining (% of DMSO control = 100)” value with transglutaminase (TGase) (setting [3]) and in the test with transglutaminase (TGase) (setting [5]) was 101 throughout.
As for `NCC(N)C(=O)OB(c1ccccc1)c1ccc(Oc2ccc(B(OC(=O)C(N)CN)c3ccccc3)cc2)cc1` (stereo not shown) [Example 436, bis(4,4′-(phenyl-2,3-diaminopropionic acid boryl)phenyl)ether], the x-Fold in test [1] (setting [4]) was determined as 0.73; in test [1] (setting [6]), 0.85; in test [1] (setting [2]) it was 0.85. Besides, the “TGase activity remaining (% of DMSO control = 100)” value in the test with transglutaminase (TGase) (setting [3]) and with transglutaminase (TGase) (setting [7]) was 104 each time.
Consider `FC(F)(F)c1ccc(C(OB(c2ccccc2)c2ccc(COCc3ccc(B(OC(c4ccc(C(F)(F)F)cc4)c4ccccn4)c4ccccc4)cc3)cc2)c2ccccn2)cc1` (stereo not shown) [Example 149, 4,4′-di((phenyl 1-(pyridin-2-yl)-1-trifluoromethylphenylmethoxyboryl)benzyl)ether], for which the x-Fold in test [1] (setting [2]) was 0.99. The “TGase activity remaining (% of DMSO control = 100)” value in the test with transglutaminase (TGase) (setting [3]) is listed as 96.
On to `Cc1ccc(B(OC(=O)C(N)CCCCN)c2ccc(Oc3ccc(B(OC(=O)C(N)CCCCN)c4ccc(C)cc4)cc3)cc2)cc1` (stereo not shown) [Example 450, bis(4,4′-(tolyllysineboryl)phenyl)ether], for which the x-Fold in test [1] (setting [6]) and in test [1] (setting [2]) was 0.49 throughout. In addition, the “TGase activity remaining (% of DMSO control = 100)” value in the test on transglutaminase (TGase) (setting [3]) and in the test with transglutaminase (TGase) (setting [7]) was 53 in each case.
Take `CN(C)CCOB(c1ccc(COc2ccc(B(OCCN(C)C)c3ccc(C(F)(F)F)cc3)cc2)cc1)c1ccc(C(F)(F)F)cc1` [Example 401, (4′-trifluoromethylphenyl-N,N-dimethylaminoethoxyboryl)-4-phenyl (4′-trifluoromethylphenyl-N,N-dimethylaminoethoxyborylbenzyl)ether]: the x-Fold in test [1] (setting [6]) and in test [1] (setting [2]) was 0.95 throughout. Besides, the “TGase activity remaining (% of DMSO control = 100)” value in the test on transglutaminase (TGase) (setting [3]) and in the test on transglutaminase (TGase) (setting [7]) was 121 each time.
Turning to `CC(O)C(N)C(=O)OB(c1ccccc1)c1ccccc1` (stereo not shown) [Example 265, diphenyl(threoninate-O,N)borane], the x-Fold in test [1] (setting [4]) and in test [1] (setting [2]) was 0.94 in each case. Further, the “TGase activity remaining (% of DMSO control = 100)” value in the test with transglutaminase (TGase) (setting [3]) and in the test with transglutaminase (TGase) (setting [5]) was 112 in each case.
For `NC(CS)C(=O)OB(c1ccccc1)c1ccc(Oc2ccc(B(OC(=O)C(N)CS)c3ccc(CO)cc3)cc2)cc1` (stereo not shown) [Example 397, (4-(phenyl-cysteineboryl)phenyl)(4′-(hydroxymethylphenyl-cysteineboryl)phenyl)ether], the x-Fold in test [1] (setting [6]) and in test [1] (setting [2]) was 0.59 throughout. In addition, the “TGase activity remaining (% of DMSO control = 100)” value in the test on transglutaminase (TGase) (setting [3]) and with transglutaminase (TGase) (setting [7]) was 70 each time.
Take `N#Cc1ccc(B(OCCN)c2ccc(C#N)cc2)cc1` [Example 103, aminoethyl bis(4-cyanophenyl)borinate]: the x-Fold in test [1] (setting [4]) and in test [1] (setting [2]) was 0.89 in each case. Besides, the “TGase activity remaining (% of DMSO control = 100)” value in the test on transglutaminase (TGase) (setting [3]) and with transglutaminase (TGase) (setting [5]) was 114 in each case.
In the case of `Cc1ccc(B(OC(=O)c2ccccn2)c2ccc(C)c(Cl)c2)cc1Cl` [Example 281, di(3-chloro-4-methylphenyl)-(picolinate-O,N)borane], in test [1] (setting [2]), the x-Fold is 0.94. Moreover, the “TGase activity remaining (% of DMSO control = 100)” value with transglutaminase (TGase) (setting [3]) came out at 77.
For `OB(c1cccc(Cl)c1)c1cccc(Cl)c1` [Example 241, di(3-chlorophenyl)borinic acid] the same measures were 1.10 and 67.
With `NCCSB(c1ccc(Cl)cc1F)c1ccc(Cl)cc1F` [Example 1, 2-aminoethylthio bis(4-chloro-2-fluorophenyl)borane], the x-Fold in test [1] (setting [4]) and in test [1] (setting [2]) was 0.95 each time. The “TGase activity remaining (% of DMSO control = 100)” value in the test on transglutaminase (TGase) (setting [3]) and with transglutaminase (TGase) (setting [5]) was 28 throughout.
